Laboratory results: patent US10597388B2, “Pyridazinone herbicides” (FMC CORPORATION, priority 2014, dated 2020)

Columns and labels:
Assay in all cases: Test E greenhouse herbicide test, pre- and postemergence
Format in all cases: in vivo
[1] = tested on: arrowleaf sida (Sida rhombifolia)
In short: (§1)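 Seeds were sown in silt loam and sprayed preemergence with compound in a non-phytotoxic solvent mix containing surfactant; for postemergence, plants at 2 to 18 cm (1- to 4-leaf stage) in peat-based potting medium were sprayed with the same formulation. After 14 to 21 d in a greenhouse, injury was rated visually against controls (0–100).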

[2] = tested on: foxtail, green (green foxtail, Setaria viridis); conditions: Preemergence
In short: as §1

[3] = tested on: johnsongrass (Sorghum halepense); conditions: Preemergence
In short: as §1

[4] = tested on: nightshade (eastern black nightshade, Solanum ptycanthum); conditions: Preemergence
In short: as §1

[5] = tested on: velvetleaf (Abutilon theophrasti); conditions: Preemergence
In short: as §1

[6] = tested on: field bindweed (Convolvulus arvensis)
In short: as §1

[7] = tested on: panicum, fall (fall panicum, Panicum dichotomiflorum)
In short: as §1

[8] = tested on: momingglory (Ipomoea coccinea); conditions: Preemergence
In short: as §1

[9] = tested on: nutsedge, yellow (yellow nutsedge, Cyperus esculentus); conditions: Preemergence
In short: as §1

[10] = tested on: foxtail, giant (giant foxtail, Setaria faberii); conditions: Preemergence
In short: as §1

[11] = tested on: lambsquarters (Chenopodium album); conditions: Preemergence
In short: as §1

[12] = tested on: surinam grass (Brachiaria decumbens); conditions: Preemergence
In short: as §1

corn (Zea mays) = tested on: corn (Zea mays)
In short: as §1

[13] = tested on: waterhemp (common waterhemp, Amaranthus rudis)
In short: as §1

[14] = tested on: wild poinsettia (Euphorbia heterophylla)
In short: as §1

[15] = 62 g ai/ha, Postemergence, scale 0 to 100 (0 no effect, 100 complete control)
[16] = 62 g ai/ha, Preemergence, scale 0 to 100 (0 no effect, 100 complete control)
[17] = 125 g ai/ha, Postemergence, scale 0 to 100 (0 no effect, 100 complete control)
[18] = 125 g ai/ha, Preemergence, scale 0 to 100 (0 no effect, 100 complete control)
[19] = 250 g ai/ha, Postemergence, scale 0 to 100 (0 no effect, 100 complete control)
[20] = Postemergence, 31 g ai/ha, visual, scale 0 no effect to 100 complete control
[21] = Preemergence, 31 g ai/ha, scale 0 to 100, 0 no effect, 100 complete control
[22] = Preemergence, 250 g ai/ha, visual, scale 0 no effect to 100 complete control
[23] = 62 g ai/ha, scale 0 to 100 (0 no effect, 100 complete control)
[24] = 125 g ai/ha, scale 0 to 100 (0 no effect, 100 complete control)
[25] = 31 g ai/ha, scale 0 to 100, 0 no effect, 100 complete control
[26] = 250 g ai/ha, visual, scale 0 no effect to 100 complete control
[27] = Preemergence, 16 g ai/ha, scale 0 to 100, 0 no effect, 100 complete control
[28] = 16 g ai/ha, scale 0 to 100, 0 no effect, 100 complete control

Structure (SMILES): Cc1ccc2sc(Br)c(-c3c(O)c(C)nn(C)c3=O)c2c1 [Compound 79]
- Plant response rating, Arrowleaf Sida [1, 15]: 50
- Plant response rating, Arrowleaf Sida [1, 16]: 80
- Plant response rating, Arrowleaf Sida [1, 17]: 60
- Plant response rating, Arrowleaf Sida [1, 18]: 75
- Plant response rating, Arrowleaf Sida [1, 19]: 70
- Plant response rating, Arrowleaf Sida [1, 20]: 50
- Plant response rating, Arrowleaf Sida [1, 21]: 75
- Plant response rating, Arrowleaf Sida [1, 22]: 75
- Plant response rating, Foxtail, Green [2, 23]: 70
- Plant response rating, Foxtail, Green [2, 24]: 80
- Plant response rating, Foxtail, Green [2, 25]: 55
- Plant response rating, Foxtail, Green [2, 26]: 90
- Plant response rating, Johnsongrass [3, 25]: 70
- Plant response rating, Johnsongrass [3, 26]: 65
- Plant response rating, Nightshade [4, 23]: 100
- Plant response rating, Nightshade [4, 24]: 100
- Plant response rating, Nightshade [4, 25]: 80
- Plant response rating, Nightshade [4, 26]: 100
- Plant response rating, Velvetleaf [5, 23]: 80
- Plant response rating, Velvetleaf [5, 24]: 95
- Plant response rating, Velvetleaf [5, 25]: 70
- Plant response rating, Velvetleaf [5, 26]: 100
- Plant response rating, Field Bindweed [6, 15]: 95
- Plant response rating, Field Bindweed [6, 16]: 90
- Plant response rating, Field Bindweed [6, 17]: 95
- Plant response rating, Field Bindweed [6, 18]: 100
- Plant response rating, Field Bindweed [6, 19]: 95
- Plant response rating, Field Bindweed [6, 20]: 80
- Plant response rating, Field Bindweed [6, 21]: 60
- Plant response rating, Field Bindweed [6, 22]: 100
- Plant response rating, Panicum, Fall [7, 15]: 60
- Plant response rating, Panicum, Fall [7, 16]: 70
- Plant response rating, Panicum, Fall [7, 17]: 60
- Plant response rating, Panicum, Fall [7, 18]: 80
- Plant response rating, Panicum, Fall [7, 19]: 75
- Plant response rating, Panicum, Fall [7, 20]: 55
- Plant response rating, Panicum, Fall [7, 21]: 80
- Plant response rating, Panicum, Fall [7, 22]: 90
- Plant response rating, Morningglory [8, 23]: 85
- Plant response rating, Morningglory [8, 24]: 90
- Plant response rating, Morningglory [8, 25]: 60
- Plant response rating, Morningglory [8, 26]: 100
- Plant response rating, Nutsedge, Yellow [9, 23]: 60
- Plant response rating, Nutsedge, Yellow [9, 24]: 65
- Plant response rating, Nutsedge, Yellow [9, 25]: 50
- Plant response rating, Nutsedge, Yellow [9, 26]: 75
- Plant response rating, Foxtail, Giant [10, 23]: 70
- Plant response rating, Foxtail, Giant [10, 24]: 85
- Plant response rating, Foxtail, Giant [10, 25]: 60
- Plant response rating, Foxtail, Giant [10, 26]: 90
- Plant response rating, Lambsquarters [11, 23]: 100
- Plant response rating, Lambsquarters [11, 24]: 100
- Plant response rating, Lambsquarters [11, 25]: 100
- Plant response rating, Lambsquarters [11, 26]: 100
- Plant response rating, Surinam Grass [12, 23]: 50
- Plant response rating, Surinam Grass [12, 24]: 60
- Plant response rating, Surinam Grass [12, 25]: 40
- Plant response rating, Surinam Grass [12, 26]: 80
- Plant response rating, Corn (corn (Zea mays); [15]): 0
- Plant response rating, Corn (corn (Zea mays); [16]): 0
- Plant response rating, Corn (corn (Zea mays); [17]): 0
- Plant response rating, Corn (corn (Zea mays); [18]): 0
- Plant response rating, Corn (corn (Zea mays); [19]): 0
- Plant response rating, Corn (corn (Zea mays); [20]): 0
- Plant response rating, Corn (corn (Zea mays); [21]): 0
- Plant response rating, Corn (corn (Zea mays); [22]): 20
- Plant response rating, Waterhemp [13, 15]: 60
- Plant response rating, Waterhemp [13, 16]: 100
- Plant response rating, Waterhemp [13, 17]: 70
- Plant response rating, Waterhemp [13, 18]: 100
- Plant response rating, Waterhemp [13, 19]: 80
- Plant response rating, Waterhemp [13, 20]: 50
- Plant response rating, Waterhemp [13, 21]: 75
- Plant response rating, Waterhemp [13, 22]: 100
- Plant response rating, Poinsettia, Wild [14, 15]: 10
- Plant response rating, Poinsettia, Wild [14, 16]: 60
- Plant response rating, Poinsettia, Wild [14, 17]: 20
- Plant response rating, Poinsettia, Wild [14, 18]: 60
- Plant response rating, Poinsettia, Wild [14, 19]: 10
- Plant response rating, Poinsettia, Wild [14, 20]: 10
- Plant response rating, Poinsettia, Wild [14, 21]: 50
- Plant response rating, Poinsettia, Wild [14, 22]: 55

Structure (SMILES): COC(=O)Oc1c(C)nn(C)c(=O)c1-c1c(C)sc2ccc(C)cc12 [Compound 80]
- Plant response rating, Arrowleaf Sida [1, 16]: 35
- Plant response rating, Arrowleaf Sida [1, 18]: 25
- Plant response rating, Arrowleaf Sida [1, 27]: 0
- Plant response rating, Arrowleaf Sida [1, 21]: 0
- Plant response rating, Foxtail, Green [2, 23]: 50
- Plant response rating, Foxtail, Green [2, 24]: 65
- Plant response rating, Foxtail, Green [2, 28]: 0
- Plant response rating, Foxtail, Green [2, 25]: 15
- Plant response rating, Johnsongrass [3, 23]: 80
- Plant response rating, Johnsongrass [3, 24]: 80
- Plant response rating, Johnsongrass [3, 25]: 0
- Plant response rating, Nightshade [4, 23]: 100
- Plant response rating, Nightshade [4, 24]: 98
- Plant response rating, Nightshade [4, 28]: 75
- Plant response rating, Nightshade [4, 25]: 75
- Plant response rating, Velvetleaf [5, 23]: 70
- Plant response rating, Velvetleaf [5, 24]: 90
- Plant response rating, Velvetleaf [5, 28]: 0
- Plant response rating, Velvetleaf [5, 25]: 20
- Plant response rating, Field Bindweed [6, 16]: 70
- Plant response rating, Field Bindweed [6, 18]: 100
- Plant response rating, Field Bindweed [6, 27]: 20
- Plant response rating, Field Bindweed [6, 21]: 25
- Plant response rating, Panicum, Fall [7, 16]: 95
- Plant response rating, Panicum, Fall [7, 18]: 98
- Plant response rating, Panicum, Fall [7, 27]: 80
- Plant response rating, Panicum, Fall [7, 21]: 90
- Plant response rating, Morningglory [8, 23]: 70
- Plant response rating, Morningglory [8, 24]: 75
- Plant response rating, Morningglory [8, 28]: 0
- Plant response rating, Morningglory [8, 25]: 65
- Plant response rating, Nutsedge, Yellow [9, 23]: 40
- Plant response rating, Nutsedge, Yellow [9, 24]: 35
- Plant response rating, Nutsedge, Yellow [9, 28]: 5
- Plant response rating, Nutsedge, Yellow [9, 25]: 10
- Plant response rating, Foxtail, Giant [10, 23]: 80
- Plant response rating, Foxtail, Giant [10, 24]: 85
- Plant response rating, Foxtail, Giant [10, 28]: 0
- Plant response rating, Foxtail, Giant [10, 25]: 50
- Plant response rating, Lambsquarters [11, 23]: 98
- Plant response rating, Lambsquarters [11, 24]: 100
- Plant response rating, Lambsquarters [11, 28]: 65
- Plant response rating, Lambsquarters [11, 25]: 100
- Plant response rating, Surinam Grass [12, 23]: 20
- Plant response rating, Surinam Grass [12, 24]: 75
- Plant response rating, Surinam Grass [12, 28]: 0
- Plant response rating, Surinam Grass [12, 25]: 10
- Plant response rating, Corn (corn (Zea mays); [16]): 0
- Plant response rating, Corn (corn (Zea mays); [18]): 0
- Plant response rating, Corn (corn (Zea mays); [27]): 0
- Plant response rating, Corn (corn (Zea mays); [21]): 0
- Plant response rating, Waterhemp [13, 16]: 100
- Plant response rating, Waterhemp [13, 18]: 100
- Plant response rating, Waterhemp [13, 27]: 0
- Plant response rating, Waterhemp [13, 21]: 70
- Plant response rating, Poinsettia, Wild [14, 16]: 0
- Plant response rating, Poinsettia, Wild [14, 18]: 40
- Plant response rating, Poinsettia, Wild [14, 27]: 0
- Plant response rating, Poinsettia, Wild [14, 21]: 0
